Measurements: patent publication US8778982B2, “Synergistic microbicidal compositions” (Rohm and Haas Company, priority 2007, dated 2014)
Like-named read-outs stand apart in the source and are kept apart here.

Key:
Type in all cases: cell-based
[1] = tested on: Aspergillus niger (A. niger—ATCC 16404); experiment: Synergy test, microtiter plate high resolution MIC assay, PDB medium, mold; details: for SI / Qb: A = MIT; for Qb: B alone where Qa = 0; for MIC: Aspergillus niger
Text: (§1) One measure of synergism is the industrially accepted method described by Kull, F. C.; Eisman, P. C.; Sylwestrowicz, H. D. and Mayer, R. L., in Applied Microbiology 9:538-541 (1961), using the ratio determined by the formula: Qa/QA+Qb/QB=Synergy Index(“SI”) wherein: • QA=concentration of compound A (first component) in ppm, acting alone, which produced an end point (MIC of Compound A). • Qa=concentration of compound A in ppm, in the mixture, which produced an end point. • QB=concentration of compound B (second component) in ppm, acting alone, which produced an end point (MIC of Compound B). • Qb=concentration of compound B in ppm, in the mixture, which produced an end point.
(§2) When the sum of Qa/QA and Qb/QB is greater than one, antagonism is indicated. […] The lower the SI, the greater is the synergy shown by that particular mixture. The minimum inhibitory concentration (MIC) of a microbicide is the lowest concentration tested under a specific set of conditions that prevents the growth of the tested microorganisms.
(§3) Synergy tests were conducted using standard microtiter plate assays with media designed for optimal growth of the test microorganism. Minimal salt medium supplemented with 0.2% glucose and 0.1% yeast extract (M9GY medium) was used for testing bacteria; Potato Dextrose Broth (PDB medium) was used for testing yeast and mold. In this method, a wide range of combinations of microbicides and other personal care raw materials was tested by conducting high resolution MIC assays in the presence of various concentrations of CMIT/MIT, MIT, or BIT. High resolution MICs were determined by adding varying amounts of microbicide to one column of a microtitre plate and doing subsequent […] dilutions using an automated liquid handling system to obtain a series of endpoints ranging from 2 ppm to 10,000 ppm active ingredient.
(§4) The synergy of the combinations of the present invention was determined against a bacterium, Escherichia coli (E. coli—ATCC #8739), a yeast, Candida albicans (C. albicans—ATCC 10231), and a mold, Aspergillus niger (A. niger—ATCC 16404). The bacteria were used at a concentration of about 5×10^6 bacteria per mL and the yeast and mold at 5×10^5 fungi per mL. These microorganisms are representative of natural contaminants in many consumer and industrial applications. […] (yeast and mold) or 30° C. (bacteria).

[2] = tested on: Candida albicans (C. albicans—ATCC 10231); experiment: Synergy test, microtiter plate high resolution MIC assay, PDB medium, yeast; details: for SI / Qb: C. albicans 10231 - PDB (6 days), A = MIT; for Qb: B alone where Qa = 0; for MIC: Candida albicans
Text: as §1, §2, §3, §4

[3] = tested on: Escherichia coli (E. coli—ATCC #8739); experiment: Synergy test, microtiter plate high resolution MIC assay, M9GY medium, bacterium; details: for SI / Qb: A = MIT; for Qb: B alone where Qa = 0; for MIC: Escherichia coli, ATCC8739, 24 h
Text: as §1, §2, §3, §4

[4] = A. niger 16404 - PDB (10 days), B = Lauric arginate
[5] = C. albicans 10231, PDB, 1 day, 25° C.
[6] = E. coli 8739 - M9GY (1 day), B = Lauric arginate
[7] = A. niger 16404 - PDB (3 days), B = Myristamidopropyl PG-dimonium chloride phosphate
[8] = B = Myristamidopropyl PG-dimonium chloride phosphate
[9] = E. coli 8739 - M9GY (1 day), B = Myristamidopropyl PG-dimonium chloride phosphate
[10] = A. niger 16404 - PDB (10 days), B = Glyceryl caprate
[11] = E. coli 8739 - M9GY (1 day), B = Glyceryl caprate
[12] = ATCC16404, 72 h, read-out: MIC of the component acting alone (QA or QB)
[13] = ATCC10231, 24 h, read-out: MIC of the component acting alone (QA or QB)
[14] = read-out: MIC of the component acting alone (QA or QB)
[15] = A. niger 16404 - PDB (10 days), B = Ethylhexylglycerin
[16] = E. coli 8739 - M9GY (6 days), B = Ethylhexylglycerin

CCCCC(CC)COCC(O)CO (stereo not shown) [Ehylhexylglycerin]
MIC of the component acting alone (Qa or Qb with the other component at 0) ([1]; A. niger 16404, PDB, 3 days): 2000 ppm | SI (synergy index) ([1]; A. niger 16404, PDB, 3 days): 1.00 | MIC of the component acting alone (Qa or Qb with the other component at 0) ([2]; C. albicans 10231, PDB, 6 days): 10000 ppm | SI (synergy index) ([2]; C. albicans 10231, PDB, 6 days): 1.00 | MIC of the component acting alone (Qa or Qb with the other component at 0) ([3]; E. coli 8739, M9GY, 2 days): 3000 ppm | SI (synergy index) ([3]; E. coli 8739, M9GY, 2 days): 1.00

CCCCCCCCCCCC(=O)N[C@@H](CCCNC(=N)N)C(=O)OCC.Cl [Lauric arginate, N-α-lauoryl-L-arginine ethyl ester monohydrochloride]
MIC of the component acting alone (Qa or Qb with the other component at 0) ([1]; A. niger 16404, PDB, 3 days): 2000 ppm | SI (synergy index) ([1]; A. niger 16404, PDB, 3 days): 1.00 | Synergy Index (SI) = Qa/QA+Qb/QB ([1]; A. niger 16404, PDB, 4 days): 1.00 | MIC of the component acting alone (QA or QB) ([1]; A. niger 16404, PDB, 4 days, 25° C.): 2000 ppm | SI [1, 4]: 1.00 | Qb [1, 4]: 2000 ppm | Synergy Index (SI) = Qa/QA+Qb/QB ([2]; C. albicans 10231, PDB, 1 day): 1.00 | MIC of the component acting alone (QA or QB) [2, 5]: 800 ppm | MIC of the component acting alone (Qa or Qb with the other component at 0) ([2]; C. albicans 10231, PDB, 6 days): 200 ppm | SI (synergy index) ([2]; C. albicans 10231, PDB, 6 days): 1.00 | SI ([2]; B = Lauric arginate): 1.00 | Qb ([2]; B = Lauric arginate): 800 ppm | MIC of the component acting alone (Qa or Qb with the other component at 0) ([3]; E. coli 8739, M9GY, 1 day): 300 ppm | SI (synergy index) ([3]; E. coli 8739, M9GY, 1 day): 1.00 | Synergy Index (SI) = Qa/QA+Qb/QB ([3]; E. coli 8739, M9GY, 1 day): 1.00 | MIC of the component acting alone (QA or QB) ([3]; E. coli 8739, M9GY, 1 day, 30° C.): 200 ppm | SI [3, 6]: 1.00 | Qb [3, 6]: 300 ppm

1-propanaminium, 3,3′,3″-[phosphinylidynetris(oxy)]-tris-[N-(aminopropyl)-2-hydroxy-N,N-dimethyl-N,N′,N″-tri-C6-18 acyl deriv. trichlorides
Synergy Index (SI) = Qa/QA+Qb/QB ([1]; A. niger 16404, PDB, 3 days): 1.00 | MIC of the component acting alone (QA or QB) ([1]; A. niger 16404, PDB, 3 days, 25° C.): 2000 ppm | MIC of the component acting alone (Qa or Qb with the other component at 0) ([1]; A. niger 16404, PDB, 4 days): 2000 ppm | SI (synergy index) ([1]; A. niger 16404, PDB, 4 days): 1.00 | SI [1, 7]: 1.00 | Qb [1, 7]: 2000 ppm | Synergy Index (SI) = Qa/QA+Qb/QB ([2]; C. albicans 10231, PDB, 1 day): 1.00 | MIC of the component acting alone (QA or QB) [2, 5]: 800 ppm | MIC of the component acting alone (Qa or Qb with the other component at 0) ([2]; C. albicans 10231, PDB, 2 days): 2000 ppm | SI (synergy index) ([2]; C. albicans 10231, PDB, 2 days): 1.00 | SI [2, 8]: 1.00 | Qb [2, 8]: 1000 ppm | MIC of the component acting alone (Qa or Qb with the other component at 0) ([3]; E. coli 8739, M9GY, 1 day): 80 ppm | SI (synergy index) ([3]; E. coli 8739, M9GY, 1 day): 1.00 | Synergy Index (SI) = Qa/QA+Qb/QB ([3]; E. coli 8739, M9GY, 2 days): 1.00 | MIC of the component acting alone (QA or QB) ([3]; E. coli 8739, M9GY, 2 days, 30° C.): 100 ppm | SI [3, 9]: 1.00 | Qb [3, 9]: 80 ppm

CCCCCCCCCC(=O)OCC(O)CO (stereo not shown) [Glyceryl caprate]
SI (synergy index) ([1]; A. niger 16404, PDB, 3 days): 1.00 | Synergy Index (SI) = Qa/QA+Qb/QB ([1]; A. niger 16404, PDB, 3 days): 1.00 | SI [1, 10]: 1.00 | Qb [1, 10]: 2000 ppm | MIC ([1]; ATCC16404, 72 h, A. niger 16404, PDB, 3 days, 25° C., read-out: MIC of the component acting alone (QA or QB)): 2 mg/mL | MIC ([1]; ATCC16404, 72 h, A. niger 16404, PDB, 3 days, read-out: MIC of the component acting alone (Qa or Qb with the other component at 0)): 2 mg/mL | Synergy Index (SI) = Qa/QA+Qb/QB ([2]; C. albicans 10231, PDB, 1 day): 1.00 | SI (synergy index) ([2]; C. albicans 10231, PDB, 6 days): 1.00 | SI ([2]; B = Glyceryl caprate): 1.00 | Qb ([2]; B = Glyceryl caprate): 2000 ppm | MIC ([2]; ATCC10231, 24 h, C. albicans 10231, PDB, 1 day, 25° C., read-out: MIC of the component acting alone (QA or QB)): 2 mg/mL | MIC ([2]; ATCC10231, 144 h, C. albicans 10231, PDB, 6 days, read-out: MIC of the component acting alone (Qa or Qb with the other component at 0)): 2 mg/mL | SI (synergy index) ([3]; E. coli 8739, M9GY, 1 day): 1.00 | Synergy Index (SI) = Qa/QA+Qb/QB ([3]; E. coli 8739, M9GY, 1 day): 1.00 | SI [3, 11]: 1.00 | Qb [3, 11]: 20000 ppm | MIC ([3]; E. coli 8739, M9GY, 1 day, 30° C., read-out: MIC of the component acting alone (QA or QB)): 20 mg/mL | MIC ([3]; E. coli 8739, M9GY, 1 day, read-out: MIC of the component acting alone (Qa or Qb with the other component at 0)): 20 mg/mL

CCCCCCCCCCCC(=O)OCC(O)CO (stereo not shown) [Glycerol monolaurate]
Synergy Index (SI) = Qa/QA+Qb/QB ([1]; A. niger 16404, PDB, 3 days): 1.00 | SI (synergy index) ([1]; A. niger 16404, PDB, 10 days): 1.00 | Synergy Index (SI) = Qa/QA+Qb/QB ([1]; A. niger 16404, PDB, 10 days): 1.00 | MIC [1, 12]: 20 mg/mL | MIC ([1]; ATCC16404, 240 h, read-out: MIC of the component acting alone (QA or QB)): 20 mg/mL | MIC ([1]; ATCC16404, 240 h, read-out: MIC of the component acting alone (Qa or Qb with the other component at 0)): 20 mg/mL | Synergy Index (SI) = Qa/QA+Qb/QB ([2]; C. albicans 10231, PDB, 1 day): 1.00 | SI (synergy index) ([2]; C. albicans 10231, PDB, 6 days): 1.00 | Synergy Index (SI) = Qa/QA+Qb/QB ([2]; C. albicans 10231, PDB, 6 days): 1.00 | MIC [2, 13]: 20 mg/mL | MIC ([2]; ATCC10231, 144 h, read-out: MIC of the component acting alone (QA or QB)): 20 mg/mL | MIC ([2]; ATCC10231, 144 h, read-out: MIC of the component acting alone (Qa or Qb with the other component at 0)): 20 mg/mL | SI (synergy index) ([3]; E. coli 8739, M9GY, 1 day): 1.00 | Synergy Index (SI) = Qa/QA+Qb/QB ([3]; E. coli 8739, M9GY, 1 day): 1.00 | MIC [3, 14]: 20 mg/mL | MIC ([3]; read-out: MIC of the component acting alone (Qa or Qb with the other component at 0)): 20 mg/mL

CCCCC(CC)COCC(O)CO (stereo not shown) [Ethylhexylglycerin, 3-[(2-ethylhexyl)oxy]-1,2propanediol]
Synergy Index (SI) = Qa/QA+Qb/QB ([1]; A. niger 16404, PDB, 3 days): 1.00 | SI [1, 15]: 1.00 | Qb [1, 15]: 2000 ppm | MIC [1, 12]: 2 mg/mL | Synergy Index (SI) = Qa/QA+Qb/QB ([2]; C. albicans 10231, PDB, 1 day): 1.00 | SI ([2]; B = Ethylhexylglycerin): 1.00 | Qb ([2]; B = Ethylhexylglycerin): 2000 ppm | MIC [2, 13]: 2 mg/mL | Synergy Index (SI) = Qa/QA+Qb/QB ([3]; E. coli 8739, M9GY, 1 day): 1.00 | SI [3, 16]: 1.00 | Qb [3, 16]: 3000 ppm | MIC [3, 14]: 3 mg/mL
